For the first assay, the target named is T1, His-hSHIP1 enzyme (Homo sapiens, UniProt Q92835).
T1 construct: His
T1 sequence (Q92835 1-1189): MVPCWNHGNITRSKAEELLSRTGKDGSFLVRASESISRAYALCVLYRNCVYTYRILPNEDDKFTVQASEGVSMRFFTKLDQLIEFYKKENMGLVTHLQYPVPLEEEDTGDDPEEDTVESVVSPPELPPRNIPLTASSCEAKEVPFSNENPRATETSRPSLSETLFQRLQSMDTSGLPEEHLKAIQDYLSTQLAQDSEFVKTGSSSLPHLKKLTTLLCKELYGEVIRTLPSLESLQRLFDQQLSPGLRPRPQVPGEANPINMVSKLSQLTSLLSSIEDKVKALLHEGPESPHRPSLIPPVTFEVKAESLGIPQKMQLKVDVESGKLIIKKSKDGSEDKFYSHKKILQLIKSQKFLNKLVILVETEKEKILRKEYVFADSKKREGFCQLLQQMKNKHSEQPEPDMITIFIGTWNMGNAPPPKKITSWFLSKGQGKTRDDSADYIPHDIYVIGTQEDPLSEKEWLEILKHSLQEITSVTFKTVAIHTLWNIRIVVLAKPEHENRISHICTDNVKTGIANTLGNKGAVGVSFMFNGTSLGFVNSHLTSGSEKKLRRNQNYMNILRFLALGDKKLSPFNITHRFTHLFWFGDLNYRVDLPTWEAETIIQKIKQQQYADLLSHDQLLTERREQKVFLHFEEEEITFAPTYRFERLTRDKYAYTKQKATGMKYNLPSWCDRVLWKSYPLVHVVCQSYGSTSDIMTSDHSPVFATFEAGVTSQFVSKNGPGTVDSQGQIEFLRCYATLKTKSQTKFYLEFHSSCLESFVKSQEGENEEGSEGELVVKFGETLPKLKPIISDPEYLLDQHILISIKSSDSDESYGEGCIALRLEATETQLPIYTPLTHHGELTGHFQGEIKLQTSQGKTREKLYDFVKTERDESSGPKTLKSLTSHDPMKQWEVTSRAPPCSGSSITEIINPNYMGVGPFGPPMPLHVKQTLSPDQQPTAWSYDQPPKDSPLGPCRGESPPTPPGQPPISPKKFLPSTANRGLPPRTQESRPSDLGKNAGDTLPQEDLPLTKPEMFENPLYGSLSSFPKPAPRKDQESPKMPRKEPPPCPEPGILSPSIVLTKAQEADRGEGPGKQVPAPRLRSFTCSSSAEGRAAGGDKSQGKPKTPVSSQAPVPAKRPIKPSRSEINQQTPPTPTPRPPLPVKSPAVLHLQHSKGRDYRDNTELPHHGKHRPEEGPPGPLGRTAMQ
Description: His-hSHIP1 activity, approach 1 (phosphate release from IP4, Biomol Green). In kind it is biochemical. The following applies: activation of His-hSHIP1; IP4 50 μM; test compound 0-300 μM; no asterisk in Table 2. The procedure: (§1) Test compounds are dissolved in 95% ethanol to form stock solutions. Before screening, the stock solutions are diluted with Phosphatase Assay Buffer (20 mM Tris-HCL, 10 mM MgCl2 pH 7.5, 0.02% Tween 20) to form working assay solutions that contain 10% ethanol. The assay is carried out on 96-well microtiter plates using a modified procedure of that reported by Ong et al., Blood 110, 1942-1949, 2007 and Yang et al., Org Lett 7, 1073-1076, 2005, both of which references are incorporated herein by reference in their entirety.
Data were generated by one of two variant methods. Test compounds are screened by one of two approaches described as follows. In the first approach, each reaction contains 5 μL of His-hSHIP1 enzyme (5-20 ng), 10 μL of the substrate, 1,3,4,5-inositol tetrakisphosphate (IP4; 50 μM final), 5 μL of Phosphatase Assay Buffer, and 5 µL of test compound at various concentrations in 10% ethanol (0-300 μM final). Control blanks are also prepared by replacing His-hSHIP1 enzyme, IP4, or test compounds with Phosphatase Assay Buffer. After adding the reaction components in a 96-well microtiter plate on ice, the reaction is mixed by briefly shaking the plate vigorously. The reaction is then incubated at 37° C. for 15 min with gentle shaking followed by addition of 100 μL of Biomol Green Reagent (BIOMOL, Pa., USA) to terminate the reaction. The free phosphate released from IP4 by His-hSHIP1 binds to the Biomol Green Reagent, which turns the dye to green color. After incubating the mixture for 20 min at room temperature for color development, the absorbance is read with SpectraMax Plus 96-well plate reader (Molecular Devices, Sunnyvale, Calif., USA) at a wavelength of 650 nm.
In the case of `COc1cc(O)cc(NC(=O)C2=C(C)CC[C@H]3C(C)(C)CCC[C@]23C)c1` [Compound No. 42, (4aS,8aS)-N-(3-hydroxy-5-methoxyphenyl)-2,5,5,8a-tetramethyl-3,4,4a,5,6,7,8,8a-octahydronaphthalene-1-carboxamide], the “Scoring, Approach 1 (% increase relative to background)” value is recorded as “+ (0 < x < 50)”.

As for `COc1cc(OC)cc(C(=O)C[C@@H]2[C@@]3(C)CCCC(C)(C)[C@@H]3CC[C@@]2(C)O)c1` [Compound No. 45, 2-[(1R,2R,4aS,8aS)-2-hydroxy-2,5,5,8a-tetramethyl-decahydronaphthalen-1-yl]-1-(3,5-dimethoxyphenyl)ethan-1-one], the “Scoring, Approach 1 (% increase relative to background)” value is listed as “++ (50 ≤ x < 65)”.

Consider `Cc1cc(O)cc(C(=O)[C@H]2[C@H](C)C(O)C[C@H]3C(C)(C)CCC[C@]23C)c1` (stereo partly drawn) [Compound No. 23, (3S,4S,4aS,8aS)-4-[(3-hydroxy-5-methylphenyl)carbonyl]-3,4a,8,8-tetramethyl-decahydronaphthalen-2-ol], for which the “Scoring, Approach 1 (% increase relative to background)” value was “+ (0 < x < 50)”.

For the compound `COc1cc(C)cc(C(=O)[C@H]2[C@@H](C)[C@H](O)C[C@H]3C(C)(C)CCC[C@]23C)c1` [Compound No. 6, (2R,3R,4S,4aS,8aS)-4-[(3-methoxy-5-methylphenyl)carbonyl]-3,4a,8,8-tetramethyl-decahydronaphthalen-2-ol], the “Scoring, Approach 1 (% increase relative to background)” value is on record as “+ (0 < x < 50)”.

The next assay addresses T1, His-hSHIP1 enzyme. Description: His-hSHIP1 activity, approach 2 (ratio of initial velocities IP4 25/IP4 250). Type of assay: biochemical. More on the design: key: +++: higher than reference or reference - 15%; ++: reference - 16% to reference - 30%; +: reference - 31% or lower. The following applies: ratio of initial velocities IP4 25/IP4 250 versus reference SHIP1 activator; asterisk in Table 2. The procedure:
as §1
In the second approach, a master mix is prepared that contains […] (0.4-1.6 ng/μL final), 25 μL of the substrate, IP4 (25 or 250 μM final), and 50 μL of test compound in 3.3% ethanol ([…]). Control blanks are also prepared by replacing His-hSHIP1 enzyme, IP4, or test compounds with Phosphate Assay Buffer. […] Each reaction component is preincubated at 37° C. for 30 min before adding to a 96-well microtiter plate. The master mix is then incubated at 37° C. At time 0, 20, 25 and 30 min, 25 μL of the master mix is removed and transferred to a new 96-well microtiter plate, to which 100 μL of Biomol Green Reagent is added to stop the reaction. After incubating the mixture for 20 min at room temperature for color development, the absorbance is read with SpectraMax Plus 96-well plate reader at a wavelength of 650 nm. Phosphate released is plotted against time to calculate the initial velocities (i.e., slope of the graph) at each IP4 concentration. The initial velocities are baseline corrected and the ratio of initial velocities (IP425/IP4250) is calculated and used to rate the test compounds.
With `COc1cc(OC)cc(C(O)[C@@H]2[C@@]3(C)CCCC(C)(C)[C@@H]3CC[C@@]2(C)O)c1` (stereo partly drawn) [Compound No. 49, (1S,2R,4aS,8aS)-1-[(3,5-dimethoxyphenyl)(hydroxy)methyl]-2,5,5,8a-tetramethyl-decahydronaphthalen-2-ol], the “Scoring, Approach 2 (Initial velocity Ratio)” value was “+++”.

As to `C=C1[C@H](C(=O)c2cc(OC)cc(OC)c2)[C@@]2(C)CCCC(C)(C)[C@@H]2C[C@H]1O` [Compound No. 141, (2R,4R,4aS,8aS)-4-[(3,5-dimethoxyphenyl)carbonyl]-4a,8,8-trimethyl-3-methylidene-decahydronaphthalen-2-ol], the “Scoring, Approach 2 (Initial velocity Ratio)” value is recorded as “+”.

On to `Cc1cc(O)cc(C(=O)[C@H]2[C@H](C)[C@H](NS(C)(=O)=O)C[C@H]3C(C)(C)CCC[C@]23C)c1` [Compound No. 176, N-[(2R,3S,4S,4aS,8aS)-4-[(3-hydroxy-5-methylphenyl)carbonyl]-3,4a,8,8-tetramethyl-decahydronaphthalen-2-yl]methanesulfonamide], for which the “Scoring, Approach 2 (Initial velocity Ratio)” value is “++”.

With `CC(=O)N[C@@H]1C[C@H]2C(C)(C)CCC[C@]2(C)[C@@H](C(=O)c2cc(C)cc(O)c2)[C@@H]1C` [Compound No. 139, N-[(2R,3S,4S,4aS,8aS)-4-[(3-hydroxy-5-methylphenyl)carbonyl]-3,4a,8,8-tetramethyl-decahydronaphthalen-2-yl]acetamide], the “Scoring, Approach 2 (Initial velocity Ratio)” value is given as “++”.

With `COc1cc(OC)cc(S(=O)(=O)C[C@H]2C(C)C(O)C[C@H]3C(C)(C)CCC[C@]23C)c1` (stereo partly drawn) [Compound No. 173, (4S,4aS,8aS)-4-{[(3,5-dimethoxybenzene)sulfonyl]methyl}-3,4a,8,8-tetramethyl-decahydronaphthalen-2-ol], the “Scoring, Approach 2 (Initial velocity Ratio)” value was “+++”.

Take `Cc1cc(O)cc(C(=O)[C@H]2[C@H](C)[C@H](NC(=O)Nc3cccnc3)C[C@H]3C(C)(C)CCC[C@]23C)c1` [Compound No. 138, 3-[(2R,3S,4S,4aS,8aS)-4-[(3-hydroxy-5-methylphenyl)carbonyl]-3,4a,8,8-tetramethyl-decahydronaphthalen-2-yl]-1-(pyridin-3-yl)urea]: the “Scoring, Approach 2 (Initial velocity Ratio)” value is recorded as “++”.

In the case of `C[C@@H]1[C@H](NC(=O)CNS(=O)(=O)c2ccccc2C(=O)O)C[C@H]2C(C)(C)CCC[C@]2(C)[C@H]1C(=O)c1cc(O)cc(O)c1` [Compound No. 181, 2-[({[(2R,3S,4S,4aS,8aS)-4-[(3,5-dihydroxyphenyl)carbonyl]-3,4a,8,8-tetramethyl-decahydronaphthalen-2-yl]carbamoyl}methyl)sulfamoyl]benzoic acid], the “Scoring, Approach 2 (Initial velocity Ratio)” value is given as “+++”.

For the compound `C[C@@H]1[C@H](NC(=N)N)C[C@H]2C(C)(C)CCC[C@]2(C)[C@H]1C(=O)c1cc(O)cc(O)c1` [Compound No. 178, 1-[(2R,3S,4S,4aS,8aS)-4-[(3,5-dihydroxyphenyl)carbonyl]-3,4a,8,8-tetramethyl-decahydronaphthalen-2-yl]guanidine], the “Scoring, Approach 2 (Initial velocity Ratio)” value is “+++”.

For the compound `Cc1cc(O)cc(C(=O)[C@H]2[C@H](C)[C@H](N)C[C@H]3C(C)(C)CCC[C@]23C)c1` [Compound No. 136, 3-{[(1S,2S,3R,4aS,8aS)-3-amino-2,5,5,8a-tetramethyl-decahydronaphthalen-1-yl]carbonyl}-5-methylphenol], the “Scoring, Approach 2 (Initial velocity Ratio)” value is reported as “++”.

With `COc1cc(OC)cc(C(=O)C2=C(C)[C@H](O)C[C@H]3C(C)(C)CCC[C@]23C)c1` [Compound No. 142, (2R,4aS,8aS)-4-[(3,5-dimethoxyphenyl)carbonyl]-3,4a,8,8-tetramethyl-1,2,4a,5,6,7,8,8a-octahydronaphthalen-2-ol], the “Scoring, Approach 2 (Initial velocity Ratio)” value is given as “++”.

With `C[C@@H]1[C@H](NC(=O)Nc2cccnc2)C[C@H]2C(C)(C)CCC[C@]2(C)[C@H]1C(=O)c1cc(O)cc(O)c1` [Compound No. 118, 3-[(2R,3S,4S,4aS,8aS)-4-[(3,5-dihydroxyphenyl)carbonyl]-3,4a,8,8-tetramethyl-decahydronaphthalen-2-yl]-1-(pyridin-3-yl)urea], the “Scoring, Approach 2 (Initial velocity Ratio)” value is recorded as “+++”.

Take `Cc1cc(O)cc(C(=O)[C@H]2[C@H](C)[C@H](NC(=N)N)C[C@H]3C(C)(C)CCC[C@]23C)c1` [Compound No. 175, 1-[(2R,3S,4S,4aS,8aS)-4-[(3-hydroxy-5-methylphenyl)carbonyl]-3,4a,8,8-tetramethyl-decahydronaphthalen-2-yl]guanidine]: the “Scoring, Approach 2 (Initial velocity Ratio)” value is given as “++”.
